This passage reports EC50 results from patent publication US11708348B2, “Protease inhibitors for treatment of coronavirus infections” (The Scripps Research Institute, priority 2021, dated 2023).

In the test the test system is SARS-CoV-2 strain USA-WA1/2020. As to the kind of experiment: microbe, parasite or virus in culture. The test is classed as cell-based. Conditions: read-out: EC50, uM (Hela).
Where [1] appears, read: Severe acute respiratory syndrome coronavirus 2, HeLa-ACE2, 24 h, HeLa-ACE2 cells, SARS-CoV-2 infection, 24 h.
Where [2] appears, read: Severe acute respiratory syndrome coronavirus 2, HeLa-ACE2, 24 h, HeLa-ACE2 cells, SARS-CoV-2 infection, 24 h, class symbols.
Where [3] appears, read: HeLa-ACE2 cells, SARS-CoV-2 infection, 24 h, class symbols.

The structures appear in SMILES notation. Where a name gives a salt, the structure may show the parent alone. Read-outs that look alike come from different tables or passages of the source.

As usually defined, the EC50 is the concentration giving half of the maximal effect. Turning to `CC(C)C[C@H](NC(=O)C(=O)Nc1ccccc1F)C(=O)N[C@@H](Cc1cnc[nH]1)C(=O)COc1c(F)c(F)cc(F)c1F` (single isomer, unassigned) [Compound 135, trifluoroacetate], the EC50 (Severe acute respiratory syndrome coronavirus 2, HeLa-ACE2, 24 h) was 0.5 to 1 µM.
On to `C[C@H](C[C@@H](O)C(=O)N1CC2(CC2)C[C@H]1C(=O)N[C@@H](C[C@@H]1CCNC1=O)C(=O)COC(F)(F)F)C(F)(F)F` (single isomer, unassigned) [Compound 426], for which the EC50 under setting [1] was less than 0.05 µM.
The same measure, in the same setting: the same measure for `CC[C@@H](NC(=O)OC(C)(C)C)C(=O)N1C[C@H]2[C@@H]([C@H]1C(=O)N[C@@H](CC1CCNC1=O)C(=O)COC(F)(F)F)C2(C)C` (stereo in doubt) [Compound 438, tert-butyl ((R)-1-((1R,2S,5S)-6,6-dimethyl-2-(((S)-3-oxo-1-((S)-2-oxopyrrolidin-3-yl)-4-(trifluoromethoxy)butan-2-yl)carbamoyl)-3-azabicyclo[3.1.0]-hexan-3-yl)-1-oxobutan-2-yl)carbamate]: less than 0.05 µM.
For `COc1cccc2[nH]c(C(=O)N[C@@H](CC(C)C)C(=O)N[C@@H](C[C@@H]3CCNC3=O)C(=O)COc3c(F)c(F)cc(F)c3F)cc12` [Compound 1, 4-methoxy-N-((S)-4-methyl-1-oxo-1-(((S)-3-oxo-1-((S)-2-oxopyrrolidin-3-yl)-4-(2,3,5,6-tetrafluorophenoxy)butan-2-yl)amino)pentan-2-yl)-1H-indole-2-carboxamide], under setting [2], the half-maximal effective concentration (EC50) was 0.05 to 0.2 µM.
Consider `COc1cccc2[nH]c(C(=O)N[C@@H](CC(C)C)C(=O)N[C@@H](C[C@@H]3CCNC3=O)C(=O)COc3c(F)cccc3F)cc12` [Compound 2], for which the concentration giving a half-maximal response (EC50) under setting [3] lay within 0.5 to 1 µM.
`COc1cccc2[nH]c(C(=O)N[C@@H](CC(C)C)C(=O)N[C@@H](C[C@@H]3CCNC3=O)C(=O)COC(=O)c3c(Cl)cccc3Cl)cc12` [Compound 3, (S)-3-((S)-2-(4-methoxy-1H-indole-2-carboxamido)-4-methylpentanamido)-2-oxo-4-((S)-2-oxopyrrolidin-3-yl)butyl 2,6-dichlorobenzoate]: the concentration giving a half-maximal response (EC50) under setting [3] was 0.2 to 0.5 µM.
For `CC(C)C[C@H](NC(=O)c1cc2ccccc2[nH]1)C(=O)N[C@@H](C[C@@H]1CCNC1=O)C(=O)COc1c(F)c(F)cc(F)c1F` [Compound 4, N-((S)-4-methyl-1-oxo-1-(((S)-3-oxo-1-((S)-2-oxopyrrolidin-3-yl)-4-(2,3,5,6-tetrafluorophenoxy)butan-2-yl)amino)pentan-2-yl)-1H-indole-2-carboxamide], the EC50 under setting [2] is less than 0.05 µM.
Same read-out and setting: the same measure for `O=C(N[C@@H](CC1CCCCC1)C(=O)N[C@@H](C[C@@H]1CCNC1=O)C(=O)COc1c(F)c(F)cc(F)c1F)c1cc2ccccc2[nH]1` [Compound 5, N-((S)-3-cyclohexyl-1-oxo-1-(((S)-3-oxo-l-((S)-2-oxopyrrolidin-3-yl)-4-(2,3,5,6-tetrafluorophenoxy)butan-2-yl)amino)propan-2-yl)-1H-indole-2-carboxamide]: 0.05 to 0.2 µM.
Turning to `COc1cccc2[nH]c(C(=O)N[C@@H](CC(C)C)C(=O)N[C@@H](C[C@@H]3CCNC3=O)C(=O)COc3c(F)cccc3F)cc12` [Compound 7, N-((S)-1-(((S)-4-(2,6-difluorophenoxy)-3-oxo-1-((S)-2-oxopyrrolidin-3-yl)butan-2-yl)amino)-4-methyl-1-oxopentan-2-yl)-4-methoxy-1H-indole-2-carboxamide], the EC50 under setting [3] lay in the range of 0.2 to 0.5 µM.
Consider `COc1cccc2[nH]c(C(=O)N[C@@H](CC(C)C)C(=O)N[C@@H](C[C@@H]3CCNC3=O)C(=O)COC(=O)c3c(Cl)cccc3Cl)cc12` [Compound 8, (S)-3-((S)-2-(4-methoxy-1H-indole-2-carboxamido)-4-methylpentanamido)-2-oxo-4-((S)-2-oxopyrrolidin-3-yl)butyl 2,6-dichlorobenzoate], for which the EC50 under setting [3] fell in the range of 0.05 to 0.2 µM.
With `CC(C)C[C@H](NC(=O)c1ccccc1)C(=O)N[C@@H](C[C@@H]1CCNC1=O)C(=O)COc1c(F)c(F)cc(F)c1F` [Compound 9, N-((S)-4-methyl-1-oxo-1-(((S)-3-oxo-1-((S)-2-oxopyrrolidin-3-yl)-4-(2,3,5,6-tetrafluorophenoxy)butan-2-yl)amino)pentan-2-yl)benzamide], under setting [2], the EC50 lay within 0.05 to 0.2 µM.
